This note sets out measurements from patent publication US20220041559A1, “BENZO-AND PYRIDO-PYRAZOLES AS PROTEIN KINASE INHIBITORS” (ROTTAPHARM BIOTECH S.R.L., priority 2019, published 2022).

For orientation: IC50 means the midpoint of a concentration-inhibition curve. A high value points to weaker potency in that assay.

T1 sequence (P06241 whole entry): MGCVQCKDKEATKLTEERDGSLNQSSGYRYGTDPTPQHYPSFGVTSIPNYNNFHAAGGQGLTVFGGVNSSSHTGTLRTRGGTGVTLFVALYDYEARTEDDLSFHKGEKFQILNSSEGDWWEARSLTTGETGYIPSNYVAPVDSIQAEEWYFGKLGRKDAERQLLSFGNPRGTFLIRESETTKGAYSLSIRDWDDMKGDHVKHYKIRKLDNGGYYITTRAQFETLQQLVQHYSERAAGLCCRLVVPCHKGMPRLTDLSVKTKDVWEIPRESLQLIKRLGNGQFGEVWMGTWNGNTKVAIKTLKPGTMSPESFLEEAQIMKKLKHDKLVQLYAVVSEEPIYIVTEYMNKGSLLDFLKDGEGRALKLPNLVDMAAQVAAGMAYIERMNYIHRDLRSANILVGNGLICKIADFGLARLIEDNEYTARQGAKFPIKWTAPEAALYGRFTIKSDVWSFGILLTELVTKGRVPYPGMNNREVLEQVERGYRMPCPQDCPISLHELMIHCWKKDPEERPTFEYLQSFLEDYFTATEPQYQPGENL

The first assay has as its target T1, FYN (Homo sapiens, UniProt P06241).
T1 construct: purchased CarnaBioscience
Nature of the assay: Z'-LYTE in vitro kinase assay, FYN kinase inhibition. In kind it is biochemical. The note with it: Table 17. Here is the method: Assays to determine the kinase inhibitory activity of compounds were performed using an automatic liquid handling device (Microlab STAR Hamilton) and Z′-LYTE™ Kinase Assay Platform (Invitrogen), a Fluorescence Resonance Energy Transfer (FRET)-based assay platform compatible with high-throughput screening (HTS) applications. The assay employs a fluorescence-based, coupled-enzyme format and utilizes the differential sensitivity of phosphorylated and non-phosphorylated peptides to proteolytic cleavage.
Test compounds were evaluated towards active FYN (CarnaBioscience). The enzyme was incubated in a 384 low-volume microplate with a synthetic peptide-substrate, ATP and different inhibitor concentrations, ranging from 10^−10 M up to 10^−5 M final concentration. Samples representing the 0% inhibition (or total enzymatic activity) were in the presence of compound diluent (1% DMSO final) in Reaction Buffer (50 mM Hepes, 10 mM MgCl2, 1 mM EGTA, 0.01% Brij-35, pH 7.5).
A near-Km ATP concentrations for the kinase and an optimal enzyme concentration that phosphorylates 20-40% of the Z′-LYTE™ Tyr 2 Peptide in a one-hour incubation, were selected. All reagents were diluted in reaction buffer and the kinase reaction was carried out in a total volume of 10 μl, for 60 minutes at 25° C. The 0% Phosphorylation (i.e. no ATP) and 100% Phosphorylation (i.e. synthetically phosphorylated peptide supplied) Assay Controls, included in each plate, allowed to calculate the percent phosphorylation achieved in the specific reaction well. The 0% Inhibition and 0% Phosphorylation (i.e. 100% Inhibition) Controls define the dynamic range in the screen. At the end of incubation, a secondary reaction (the Development Reaction) started by adding 5 μl of Development Reagent, containing a site-specific protease that recognizes and cleaves non-phosphorylated peptides, and was interrupted after 60 minutes with 5 μl/sample of Stop Reagent. Measurement of the Coumarin (Ex. 400 nm, Em. 460 nm) and Fluorescein (Ex. 400 nm, Em. 535 nm) emission signals were performed by a fluorescence plate reader (Envision, PerkinElmer).
Results are expressed as percentage of inhibition and the IC50 values were calculated by non-linear curve fitting using GraphPad™ Prism software.
Regarding `Cc1cccc(F)c1Nc1ccc2c(NC(=O)c3ccc(C4CCN(C)CC4)cc3)n[nH]c2c1` [Compound 11, N-(6-((2-fluoro-6-methylphenyl)amino)-1H-indazol-3-yl)-4-(1-methylpiperidin-4-yl)benzamide], the “FYN kinase inhibition, result in words” value is recorded as “more active”.
The same measure, in the same setting: as for `CN1CCC(c2ccc(C(=O)Nc3n[nH]c4cc(Nc5c(F)ccc6c5OCO6)ccc34)cc2)CC1` [Compound 15, N-(6-((5-fluorobenzo[d][1,3]dioxol-4-yl)amino)-1H-indazol-3-yl)-4-(1-methylpiperidin-4-yl)benzamide], the entry is “more active”.

Still in this assay, the particulars now being: near-Km ATP, 60 minutes at 25° C.
The molecule `CN1CC[C@@H](c2ccc(C(=O)Nc3n[nH]c4cc(Nc5ccccc5F)ccc34)cc2)[C@@H](F)C1` (single isomer, unassigned) [Compound 3] had an IC50 of 307 nM.
Still for that read-out and setting: under `CN1CC[C@@H](c2ccc(C(=O)Nc3n[nH]c4cc(Nc5ccccc5F)ccc34)cc2)[C@@H](F)C1` (single isomer, unassigned) [Compound 4] stands 203 nM; under `CN1CCCC(Oc2ccc(C(=O)Nc3n[nH]c4cc(Nc5ccccc5F)ccc34)cc2)C1` (single isomer, unassigned) [Compound 40], 548 nM; under `CN1CCCC(Oc2ccc(C(=O)Nc3n[nH]c4cc(Nc5ccccc5F)ccc34)cc2)C1` (single isomer, unassigned) [Compound 41], 374 nM.
The molecule `CCc1cccc(F)c1Nc1ccc2c(NC(=O)c3ccc(C4CCN(C)CC4)cc3)n[nH]c2c1` [Compound 2, N-(6-((2-ethyl-6-fluorophenyl)amino)-1H-indazol-3-yl)-4-(1-methylpiperidin-4-yl)benzamide] came in with an IC50 of 315 nM.
The molecule `O=C(Nc1n[nH]c2cc(Nc3ccccc3F)ccc12)c1ccc(C2CCN(C3COC3)CC2)cc1` [Compound 7, N-(6-((2-fluorophenyl)amino)-1H-indazol-3-yl)-4-(1-(oxetan-3-yl)piperidin-4-yl)benzamide] had an IC50 of 468 nM.
Same read-out and setting: under `CN1CCC(c2ccc(C(=O)Nc3n[nH]c4cc(Nc5ccc(F)cc5Cl)ccc34)cc2)CC1` [Compound 9, N-(6-((2-chloro-4-fluorophenyl)amino)-1H-indazol-3-yl)-4-(1-methylpiperidin-4-yl)benzamide] stands 388 nM; under `CN1CCC(c2ccc(C(=O)Nc3n[nH]c4cc(Nc5ccccc5C(F)(F)F)ccc34)cc2)CC1` [Compound 10, 4-(1-methylpiperidin-4-yl)-N-(6-((2-(trifluoromethyl)phenyl)amino)-1H-indazol-3-yl)benzamide], 650 nM; under `Cc1cccc(F)c1Nc1ccc2c(NC(=O)c3ccc(C4CCN(C)CC4)cc3)n[nH]c2c1` [Compound 11, N-(6-((2-fluoro-6-methylphenyl)amino)-1H-indazol-3-yl)-4-(1-methylpiperidin-4-yl)benzamide], 47 nM.
On to `CN1CCC(c2ccc(C(=O)Nc3n[nH]c4cc(Nc5ccc(Cl)cc5F)ccc34)cc2)CC1` [Compound 12, N-(6-((4-chloro-2-fluorophenyl)amino)-1H-indazol-3-yl)-4-(1-methylpiperidin-4-yl)benzamide], for which the IC50 is 220 nM.
Molecule `Cc1cccc(Cl)c1Nc1ccc2c(NC(=O)c3ccc(C4CCN(C)CC4)cc3)n[nH]c2c1` [Compound 13, N-(6-((2-choro-6-methylphenyl)amino)-1H-indazol-3-yl)-4-(1-methylpiperidin-4-yl)benzamide] had an IC50 of 207 nM.
`CN1CCC(c2ccc(C(=O)Nc3n[nH]c4cc(Nc5c(F)ccc6c5OCO6)ccc34)cc2)CC1` [Compound 15, N-(6-((5-fluorobenzo[d][1,3]dioxol-4-yl)amino)-1H-indazol-3-yl)-4-(1-methylpiperidin-4-yl)benzamide] returned an IC50 of 19 nM.
The same measure, in the same setting: as for `CN1CCC(c2ccc(C(=O)Nc3n[nH]c4cc(Nc5ccc(F)cc5F)ccc34)cc2)CC1` [Compound 16, N-(6-((2,4-difluorophenyl)amino)-1H-indazol-3-yl)-4-(1-methylpiperidin-4-yl)benzamide], the figure is 97 nM; as for `Cc1ccc(Nc2ccc3c(NC(=O)c4ccc(C5CCN(C)CC5)cc4)n[nH]c3c2)cc1` [Compound 18, 4-(1-methylpiperidin-4-yl)-N-(6-(p-tolyamino)-1H-indazol-3-yl)benzamide], 105 nM.
Still for that read-out and setting: under `CN1CCC(c2ccc(C(=O)Nc3n[nH]c4cc(Nc5cccc(F)c5)ccc34)cc2)CC1` [Compound 19, N-(6-((3-fluorophenyl)amino)-1H-indazol-3-yl)-4-(1-methylpiperidin-4-yl)benzamide] stands 258 nM.
Same read-out and setting: as for `Cc1cccc(F)c1Nc1ccc2c(NC(=O)c3ccc(C4CCN(C)CC4)cc3)n[nH]c2n1` [Compound 21, N-(6-((2-fluoro-6-methylphenyl)amino)-1H-pyrazolo[3,4-b]pyridin-3-yl)-4-(1-methylpiperidin-4-yl)benzamide], the figure is 442 nM; as for `CN1CCC(c2ccc(C(=O)Nc3n[nH]c4nc(Nc5ccc(F)cc5F)ccc34)cc2)CC1` [Compound 22, N-(6-((2,4-difluorophenyl)amino)-1H-pyrazolo[3,4-b]pyridin-3-yl)-4-(1-methylpiperidin-4-yl)benzamide], 283 nM.
As to `CC(C)N1CCC(c2ccc(C(=O)Nc3n[nH]c4nc(Nc5ccccc5F)ccc34)cc2)CC1` [Compound 24, N-(6-((2-fluorophenyl)amino)-1H-pyrazolo[3,4-b]pyridin-3-yl)-4-(1-isopropylpiperidin-4-yl)benzamide], it took 209 nM to reach half-maximal inhibition (IC50).
The same measure, in the same setting: as for `CN1CCC(c2ccc(C(=O)Nc3n[nH]c4nc(Nc5ccccc5Cl)ccc34)cc2)CC1` [Compound 26, N-(6-((2-chlorophenyl)amino)-1H-pyrazolo[3,4-b]pyridin-3-yl)-4-(1-methylpiperidin-4-yl)benzamide], the figure is 260 nM; as for `COc1ccccc1Nc1ccc2c(NC(=O)c3ccc(C4CCN(C)CC4)cc3)n[nH]c2n1` [Compound 27, N-(6-((2-methoxyphenyl)amino)-1H-pyrazolo[3,4-b]pyridin-3-yl)-4-(1-methylpiperidin-4-yl)benzamide], 538 nM; as for `COc1ccc(Nc2ccc3c(NC(=O)c4ccc(C5CCN(C)CC5)cc4)n[nH]c3n2)cc1` [Compound 31, N-(6-((4-methoxyphenyl)amino)-1H-pyrazolo[3,4-b]pyridin-3-yl)-4-(1-methylpiperidin-4-yl)benzamide], 589 nM.
Still for that read-out and setting: as for `CN1CCN(c2ccc(C(=O)Nc3n[nH]c4cc(Nc5ccccc5F)ccc34)cc2)CC1` [Compound 34, N-(6-((2-fluorophenyl)amino)-1H-indazol-3-yl)-4-(4-methylpiperazin-1-yl)benzamide], the figure is 147 nM; as for `CN1CCC(Oc2ccc(C(=O)Nc3n[nH]c4cc(Nc5ccccc5F)ccc34)cc2)CC1` [Compound 35, N-(6((2-fluorophenyl)amino)-1H-indazol-3-yl)-4((1-methylpiperidin-4-yl)oxy)benzamide], 145 nM.
In turn, `O=C(Nc1n[nH]c2cc(Nc3ccccc3F)ccc12)c1ccc(N2CCOCC2)cc1` [Compound 36, N-(6((2-fluorophenyl)amino)-1H-indazol-3-yl)-4-morpholinobenzamide] showed an IC50 of 370 nM.
On the same count and under the same terms, as for `CN1CCCC(Oc2ccc(C(=O)Nc3n[nH]c4cc(Nc5ccccc5F)ccc34)cc2)C1` (stereo not drawn) [Compound 38, N-(6((2-fluorophenyl)amino)-1H-indazol-3-yl)-4((1-methylpiperidin-3-yl)oxy)benzamide], the figure is 283 nM; as for `CN1CCC(c2ccc(C(=O)Nc3n[nH]c4cc(Nc5ccccc5F)ccc34)cc2OCC2COC2)CC1` [Compound 42, N-(6-((2-fluorophenyl)amino)-1H-indazol-3-yl)-4-(1-methylpiperidin-4-yl)-3-(oxetan-3-ylmethoxy)benzamide], 204 nM; as for `CN1CCC(c2ccc(C(=O)Nc3n[nH]c4nc(Nc5c(F)ccc6c5OCO6)ccc34)cc2)CC1` [Compound 49, N-(6((5-fluorobenzo[d][1,3]dioxol-4-yl)amino)-1H-pyrazolo[3,4-b]pyridin-3-yl)-4-(1-methylpiperidin-4-yl)benzamide], 831 nM.
On to `CN1CCC(c2ccc(C(=O)Nc3n[nH]c4cc(Nc5ccccc5F)ccc34)c(NC3CCOCC3)c2)CC1` [Compound 53, N-(6-((2-fluorophenyl)amino)-1H-indazol-3-yl)-4-(1-methylpiperidin-4-yl)-2-((tetrahydro-2H-pyran-4-yl)amino)benzamide], for which the IC50 turned out to be 201 nM.
